Measurements: patent US20040224958A1, “Pyridopyrimidinone derivatives for treatment of neurodegenerative disease” (priority 2000, published 2004)

Columns and labels:
cdk4/D = cdk4/D (Homo sapiens, UniProt P11802); test: Cyclin-Dependent Kinase 4 (cdk4) Assay; type: biochemical; settings: read-out: cdk4/D IC50
Cdk5/p25 = Cdk5/p25 (Homo sapiens, UniProt Q00535); test: Cyclin-Dependent Kinase 5 High Throughput Screening (cdk5-HTS) Assay; type: biochemical; settings: high throughput screen
In short: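 Cdk5/p25 (1.0 μg/mL) phosphorylates GST-RbCOOH (20 μg/mL) in 50 mM Tris pH 7.4 with 10 mM MgCl2 and 20 μM ATP spiked with [γ33P]ATP, 30 min at room temperature. After EDTA stop, substrate captured on glutathione-coated plates; 33P incorporation counted by scintillation; IC50 determined.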

cdk2/cyclinE = cdk2/cyclinE (Homo sapiens, UniProt P24941); test: Cyclin-Dependent Kinase Assay cdk2/cyclinE; settings: cdk2/E IC50
cdk2/cyclinA = cdk2/cyclinA (Homo sapiens, UniProt P24941); test: Cyclin-Dependent Kinase Assay cdk2/cyclinA; settings: cdk2/A IC50
cdc2/cyclinB = cdc2/cyclinB (Homo sapiens, UniProt P06493); test: Cyclin-Dependent Kinase Assay cdc2/cyclinB
cdc2/cyclinB, sequence (P06493 whole entry): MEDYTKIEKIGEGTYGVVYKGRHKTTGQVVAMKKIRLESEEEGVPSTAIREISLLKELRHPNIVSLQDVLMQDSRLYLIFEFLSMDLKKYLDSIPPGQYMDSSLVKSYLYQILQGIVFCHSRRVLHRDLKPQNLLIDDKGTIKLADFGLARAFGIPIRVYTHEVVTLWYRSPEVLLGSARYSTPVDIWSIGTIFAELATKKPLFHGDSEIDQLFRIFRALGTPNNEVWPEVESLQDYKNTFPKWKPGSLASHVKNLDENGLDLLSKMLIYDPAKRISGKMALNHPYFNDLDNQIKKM
cdc2/cyclinB, sequence (P14635 whole entry, further chain): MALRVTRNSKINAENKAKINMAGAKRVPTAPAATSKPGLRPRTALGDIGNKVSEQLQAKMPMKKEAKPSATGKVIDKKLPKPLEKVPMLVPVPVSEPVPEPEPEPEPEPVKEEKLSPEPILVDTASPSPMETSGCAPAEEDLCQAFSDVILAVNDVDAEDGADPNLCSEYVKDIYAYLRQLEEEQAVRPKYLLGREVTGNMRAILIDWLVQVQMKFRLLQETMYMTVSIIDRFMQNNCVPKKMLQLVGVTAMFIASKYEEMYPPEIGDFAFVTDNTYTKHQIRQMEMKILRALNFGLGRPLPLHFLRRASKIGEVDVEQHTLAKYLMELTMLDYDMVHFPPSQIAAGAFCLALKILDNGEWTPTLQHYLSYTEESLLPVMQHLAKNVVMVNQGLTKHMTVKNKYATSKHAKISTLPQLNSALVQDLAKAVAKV

cdk4/D, sequence (P11802 whole entry): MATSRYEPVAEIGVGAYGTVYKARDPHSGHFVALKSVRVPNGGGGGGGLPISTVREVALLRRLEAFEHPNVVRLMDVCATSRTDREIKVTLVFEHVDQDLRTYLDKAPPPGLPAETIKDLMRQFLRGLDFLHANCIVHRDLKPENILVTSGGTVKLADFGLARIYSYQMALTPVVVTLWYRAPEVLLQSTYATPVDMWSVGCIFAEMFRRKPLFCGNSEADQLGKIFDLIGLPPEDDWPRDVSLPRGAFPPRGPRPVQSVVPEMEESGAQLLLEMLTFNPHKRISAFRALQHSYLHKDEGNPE
cdk4/D, sequence (P24385 whole entry, further chain): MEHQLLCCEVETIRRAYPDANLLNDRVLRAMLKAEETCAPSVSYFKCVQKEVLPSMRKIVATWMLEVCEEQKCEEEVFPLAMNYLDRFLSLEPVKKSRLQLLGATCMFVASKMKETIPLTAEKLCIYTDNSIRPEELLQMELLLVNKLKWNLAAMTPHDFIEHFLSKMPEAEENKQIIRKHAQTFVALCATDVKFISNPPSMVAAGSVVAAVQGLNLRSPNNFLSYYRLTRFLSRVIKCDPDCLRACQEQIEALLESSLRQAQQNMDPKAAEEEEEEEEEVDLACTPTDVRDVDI

Row | IC50 (cdk4/D) [µM] | IC50 (Cdk5/p25) [µM] | IC50 (cdk2/cyclinE) [µM] | IC50 (cdk2/cyclinA) [µM] | IC50 (cdc2/cyclinB) [µM] | Structure (SMILES)
1 | 0.15 | 0.06 | 0.39 | 0.42 | 0.54 | CC(=O)N(C)c1ccc(Nc2ncc3ccc(=O)n(C(C)C)c3n2)cc1 [Example 432, N-[4-(8-Isopropyl-7-oxo-7,8-dihydro-pyrido[2,3-d]pyrimidin-2-ylamino)-phenyl]-N-methyl-acetamide]
2 | 0.55 | 0.082 | 0.78 | 1.8 | 0.46 | CCC(C)n1c(=O)ccc2cnc(Nc3cc(Cl)c(Cl)c(Cl)c3)nc21 (centres unmarked) [Example 461, 8-sec-Butyl-2-(3,4,5-trichloro-phenylamino)-8H-pyrido[2,3-d]pyrimidin-7-one]
3 | 0.92 | 0.102 | 0.043 | 0.102 | 0.101 | O=c1ccc2cnc(Nc3cc(Cl)c(O)c(Cl)c3)nc2n1CC1CC1 [Example 568, 8-Cyclopropylmethyl-2-(3,5-dichloro-4-hydroxy-phenylamino)-8H-pyrido[2,3-d]pyrimidin-7-one]
4 | 0.087 | 0.02 | 0.025 | 0.14 | 0.058 | CCCCn1c(=O)ccc2cnc(Nc3cccc(S(N)(=O)=O)c3)nc21 [Example 402, 3-(8-Butyl-7-oxo-7,8-dihydro-pyrido[2,3-d]pyrimidin-2-ylamino)-benzenesulfonamide]
5 | 0.21 | 0.45 | 0.32 | 0.18 | 0.34 | CC(=O)Nc1cc(Nc2ncc3ccc(=O)n(CC4CC4)c3n2)ccc1C [Example 585]
6 | 3.4 | 0.17 | 0.59 | 0.87 | 0.88 | COc1cc(Nc2ncc3ccc(=O)n(C(C)C)c3n2)cc(OC)c1OC [Example 417, 8-Isopropyl-2-(3,4,5-trimethoxy-phenylamino)-8H-pyrido[2,3-d]pyrimidin-7-one]
7 | 0.27 | 0.048 | 0.17 | 0.34 | 0.57 | CCCn1c(=O)ccc2cnc(Nc3ccc(OC)c(F)c3)nc21 [Example 338, 2-(3-Fluoro-4-methoxy-phenylamino)-8-propyl-8H-pyrido[2,3-d]pyrimidin-7-one]
8 | 1.69 | 0.244 | 0.183 | 0.43 | 0.165 | CCn1c(=O)ccc2cnc(Nc3ccc(O)c(Cl)c3)nc21 [Example 290, 2-(3-Chloro-4-hydroxy-phenylamino)-8-ethyl-8H1-pyrido[2,3-d]pyrimidin-7-one]
9 | 0.49 | 0.17 | 0.2 | 0.17 | 0.12 | Cc1cc(Nc2ncc3ccc(=O)n(CC4CC4)c3n2)cc(C)c1O [Example 586, 8-Cyclopropylmethyl-2-(4-hydroxy-3,5-dimethyl-phenylamino)-8H-pyrido[2,3-d]pyrimidin-7-one]
10 | 0.067 | 0.042 | 0.098 | 0.22 | 0.067 | CCC(CC)n1c(=O)ccc2cnc(Nc3cc(Cl)c(N)c(Cl)c3)nc21 [Example 521, 2-(4-Amino-3,5-dichloro-phenylamino)-S-(1-ethyl-propyl)-8H-pyrido[2,3-d]pyrimidin-7-one]
11 | 0.093 | 0.023 | 0.039 | 0.23 | 0.073 | CCCCn1c(=O)ccc2cnc(Nc3ccc4c(c3)CCCC4=O)nc21 [Example 403, 8-Butyl-2-(5-oxo-5,6,7,8-tetrahydro-naphthalen-2-ylamino)-8H-pyrido[2,3-d]pyrimidin-7-one]
12 | 0.18 | 0.0097 | 0.011 | 0.034 | 0.045 | CCCCn1c(=O)ccc2cnc(Nc3ccc(S(N)(=O)=O)cc3)nc21 [Example 393, 4-(8-Butyl-7-oxo-7,8-dihydro-pyrido[2,3-d]pyrimidin-2-ylamino)-benzenesulfonamide]
13 | 3 | 1.14 | 1.53 | 3.6 | 1.76 | Cn1c(=O)ccc2cnc(Nc3ccc(NC(=O)OC(C)(C)C)cc3)nc21 [Example 615, [4-(8-Methyl-7-oxo-7,8-dihydro-pyrido[2,3-d]pyrimidin-2-ylamino)-phenyl]-carbamic acid tert-butyl ester]
14 | 0.2 | 0.071 | 0.23 | 0.67 | 0.48 | CCC(CC)n1c(=O)ccc2cnc(Nc3ccc(OC(F)(F)F)cc3)nc21 [Example 515, 8-(1-Ethyl-propyl)-2-(4-trifluoromethoxy-phenylamino)-8H-pyrido[2,3-d]pyrimidin-7-one]
15 | 0.031 | 0.032 | 0.024 | 0.0355 | 0.0825 | O=c1ccc2cnc(Nc3ccc4cn[nH]c4c3)nc2n1C1CCCC1 [Example 529, 8-Cyclopentyl-2-(1H-indazol-6-ylamino)-8H-pyrido[2,3-d]pyrimidin-7-one]
16 | 2.1 | 0.435 | 0.37 | 1.15 | 0.94 | CCCn1c(=O)ccc2cnc(Nc3cccc([N+](=O)[O-])c3)nc21 [Example 330, 2-(3-Nitro-phenylamino)-8-propyl-8H-pyrido[2,3-d]pyrimidin-7-one]
17 | 0.113 | 0.0645 | 0.13 | 0.265 | 0.14 | CCC(C)n1c(=O)ccc2cnc(Nc3ccc(NC(=O)OC(C)(C)C)cc3)nc21 (centres unmarked) [Example 450, [4-(8-sec-Butyl-7-oxo-7,8-dihydro-pyrido[2,3-d]pyrimidin-2-ylamino)-phenyl]-carbamic acid tert-butyl ester]
18 | 2 | 0.155 | 0.51 | 1.45 | 2 | O=c1ccc2cnc(Nc3ccc4nn[nH]c4c3)nc2n1CC(F)(F)F [Example 595, 2-(1H-Benzotriazol-5-ylamino)-8-(2,2,2-trifluoro-ethyl)-8H1-pyrido[2,3-d]pyrimidin-7-one]
19 | 0.38 | 0.131 | 0.4 | 1.18 | 0.275 | CCCn1c(=O)ccc2cnc(Nc3ccc(C)c(F)c3)nc21 [Example 376, 2-(3-Fluoro-4-methyl-phenylamino)-8-propyl-8H-pyrido[2,3-d]pyrimidin-7-one]
20 | 0.11 | 0.0061 | 0.05 | 0.15 | 0.067 | CCC(C)n1c(=O)ccc2cnc(Nc3ccc4c(c3)CCCC4=O)nc21 (centres unmarked) [Example 470, 8-sec-Butyl-2-(5-oxo-5,6,7,8-tetrahydro-naphthalen-2-ylamino)-8H-pyrido[2,3-d]pyrimidin-7-one]
21 | 0.0235 | 0.0235 | 0.0143 | 0.0335 | 0.028 | O=c1ccc2cnc(Nc3ccc(O)c(Cl)c3)nc2n1C1CCCC1 [Example 539, 2-(3-Chloro-4-hydroxy-phenylamino)-8-cyclopentyl-8H-pyrido[2,3-d]pyrimidin-7-one]
22 | 2.8 | 0.43 | 0.95 | 3.9 | 0.62 | CCn1c(=O)ccc2cnc(Nc3cc(OC)cc(C(F)(F)F)c3)nc21 [Example 300, 8-Ethyl-2-(3-methoxy-5-trifluoromethyl-phenylamino)-8H-pyrido[2,3-d]pyrimidin-7-one]
23 | 0.42 | 0.092 | 0.28 | 0.89 | 0.52 | CCCn1c(=O)ccc2cnc(Nc3ccc(Br)c(Cl)c3)nc21 [Example 341, 2-(4-Bromo-3-chloro-phenylamino)-8-propyl-8H-pyrido[2,3-d]pyrimidin-7-one]
24 | 2.75 | 0.255 | 2.27 | 2.8 | 0.865 | Cn1c(=O)ccc2cnc(Nc3ccccc3)nc21 [Example 285, 8-Methyl-2-phenylamino-81H-pyrido[2,3-d]pyrimidin-7-one]
25 | 0.15 | 0.44 | 1.5 | 1.1 | 1.4 | CC(=O)Nc1cc(Nc2ncc3ccc(=O)n(C(C)C)c3n2)ccc1C [Example 440, N-[5-(8-Isopropyl-7-oxo-7,8-dihydro-pyrido[2,3-d]pyrimidin-2-ylamino)-2-methyl-phenyl]-acetamide]
26 | 0.31 | 0.17 | 0.35 | 0.96 | 1.3 | CCCn1c(=O)ccc2cnc(Nc3ccc(C#N)c(NC(C)=O)c3)nc21 [Example 340, N-[2-Cyano-5-(7-oxo-8-propyl-7,8-dihydro-pyrido[2,3-d]pyrimidin-2-ylamino)-phenyl]-acetamide]
27 | 0.29 | 0.055 | 0.016 | 0.014 | 0.036 | O=c1ccc2cnc(Nc3ccc(O)c([N+](=O)[O-])c3)nc2n1C1CCCC1 [Example 551, 8-Cyclopentyl-2-(4-hydroxy-3-nitro-phenylamino)-8H-pyrido[2,3-d]pyrimidin-7-one]
28 | 2.05 | 0.59 | 0.417 | 1.31 | 1.05 | CCCn1c(=O)ccc2cnc(Nc3ccc(F)cc3)nc21 [Example 332, 2-(4-Fluoro-phenylamino)-8-propyl-8H-pyrido[2,3-d]pyrimidin-7-one]
